From patent US8901074B2, “Methods of treating autoimmune diseases of the central nervous system (CNS) and neurodegenerative diseases” (Ramot at Tel-Aviv University, priority 2010, dated 2014)
Where no end group is shown, it is not given here.

Experiments:
[1] = target: T1, insulin degrading enzyme (IDE) (Homo sapiens, UniProt P14735); assay: IDE enzymatic activity inhibition; assay type: biochemical
T1 sequence (P14735 1-1019): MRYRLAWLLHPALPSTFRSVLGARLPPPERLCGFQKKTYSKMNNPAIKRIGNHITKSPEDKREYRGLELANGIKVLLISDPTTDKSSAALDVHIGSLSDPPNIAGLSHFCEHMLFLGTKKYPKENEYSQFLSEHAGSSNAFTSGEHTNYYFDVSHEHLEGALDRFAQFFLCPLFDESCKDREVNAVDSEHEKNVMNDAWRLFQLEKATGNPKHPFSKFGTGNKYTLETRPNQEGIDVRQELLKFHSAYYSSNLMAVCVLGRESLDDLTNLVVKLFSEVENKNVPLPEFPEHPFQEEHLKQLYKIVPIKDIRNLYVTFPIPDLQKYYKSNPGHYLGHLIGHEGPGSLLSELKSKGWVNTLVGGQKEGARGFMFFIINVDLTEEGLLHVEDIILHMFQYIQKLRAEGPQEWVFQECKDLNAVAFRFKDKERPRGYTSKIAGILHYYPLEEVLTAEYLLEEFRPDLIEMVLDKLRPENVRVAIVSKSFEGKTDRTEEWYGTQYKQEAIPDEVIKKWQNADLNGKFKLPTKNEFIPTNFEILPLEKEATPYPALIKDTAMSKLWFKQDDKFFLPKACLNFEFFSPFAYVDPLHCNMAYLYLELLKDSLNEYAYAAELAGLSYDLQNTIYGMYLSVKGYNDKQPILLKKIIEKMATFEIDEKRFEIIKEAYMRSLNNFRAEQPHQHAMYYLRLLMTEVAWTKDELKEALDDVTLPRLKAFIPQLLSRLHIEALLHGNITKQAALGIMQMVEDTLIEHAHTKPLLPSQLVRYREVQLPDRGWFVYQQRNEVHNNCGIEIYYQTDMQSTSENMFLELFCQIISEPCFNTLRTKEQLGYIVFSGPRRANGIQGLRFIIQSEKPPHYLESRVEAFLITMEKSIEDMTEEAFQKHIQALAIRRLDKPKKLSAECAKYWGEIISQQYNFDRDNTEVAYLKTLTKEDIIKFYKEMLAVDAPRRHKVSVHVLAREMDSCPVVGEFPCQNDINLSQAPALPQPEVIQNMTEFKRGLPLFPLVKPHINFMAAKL
Description: The IDE inhibitor of the present teachings specifically down-regulates the enzymatic activity of IDE. For instance, the IC50 of IDE is in the range of 10-200 nM as assayed for ADT-21. According to exemplary embodiments, the IDE inhibitor of the present invention is capable of down-regulating by at least 5%, at least 10%, at least 15%, at least 20%, at least 30%, at least 40%, at least 50%, at least 60%, at least 70%, at least 80%, at least 90% or at least 100% the enzymatic activity of IDE.
Any method known in the art for measuring IDE activity may be used to assess down-regulation in IDE. For example, one method which may be used comprises the use of an Insulysin/IDE Immunocapture Activity Assay Kit (available e.g. from InnoZyme™, Calbiochem). Using this kit ELISA plates are first coated with the target enzyme (i.e. IDE) and then the plates are incubated with a substrate (e.g. insulin). The enzymatic activity is measured in comparison to wells without the substrate using for example a FRET substrate, Mca-GGFLRKHGQ-EDDnp (SEQ ID NO: 79). Cleavage of the scissile amide bond between R and K releases the fluorophore from the quenching molecule, Dnp, resulting in an increase in fluorescence. The increase in fluorescence is measured using an excitation wavelength of 320 nm and an emission wavelength of 405 nm.

[2] = Toxicity monitoring (body weight, eating habits, tail tone, mobility) in APP mice; assay type: in vivo; settings: 1.07 μg/mouse every other day for 4 months
Description: 8-week-old APP/PSI mice were used as previously described (Oakley et al 2006, J Neurosci 26: 10129-10140). Mice were treated with either ADT21 (1.07 μg/mouse) or PBS every other day for 4 months.
Contextual fear conditioning was tested as described previously (Carlos A. et al., 2005) Mice were placed within the conditioning chamber (Coulbourn Instruments, Allentown, Pa.) (7″W×7″D×12″H) for 3 min before the onset of the unconditioned stimulus (US; footshock; 1 s/1 mA) through the cage grid floor (Model H10-11M-TC-SF) from a Coulbourn Instruments shocker (Model H13-15). Activation was detected via a camera above the cage (ACT-VP-01) with a special algorithm for motion detection, to allow them to develop a representation of the context via exploration. After the shock, mice were left in the chamber for 2 min (immediate freezing) and returned to their home cages. 24 hours after the training session, the mice were again placed in the chamber and tested for 4 min without any footshocks. The chamber was isolated in a quiet environment using the noise sealed box (H10-24T Coulbourn Instruments). Freezing response was scored by using the FreezeFrame automated system (Coulbourn Instruments). Furthermore, mice were daily monitored for body weight, eating habits, tail tone and mobility.

## ITNPGSGGSSVLRYDDFHTD [ADT21]
[1]
  IC50: 10 to 200 nM
[2]
  changes in behavior indicating toxicity (body weight, eating habits, tail tone, mobility): no changes in their behavior
